Usually IC50 stands for the concentration needed to halve the response being measured.

Numbered stars: 1 amine (or outer) side, 2 acyl side, 3 side chain; on linkers, the order of the positions; unused ones are H or OH. Bridge positions count the residues as written; N and C are the ends. Square brackets hold non-standard residues; d marks the D form. Peptide text beside a SMILES is read from it. Trp(7-Me) = Cc1cccc2c(C[C@H](N)C(=O)O)c[nH]c12; Abu(4-yl) = O=C([C@H](CC[*:3])N[*:1])[*:2]; 2Nal = N[C@@H](Cc1ccc2ccccc2c1)C(=O)O; AEF = NCCOc1ccc(C[C@H](N)C(=O)O)cc1; αMeF = C[C@](N)(Cc1ccccc1)C(=O)O; Cit = NC(=O)NCCC[C@H](N)C(=O)O; Pen = CC(C)(S)[C@H](N)C(=O)O; αMeK = C[C@](N)(CCCCN)C(=O)O; Aib = CC(C)(N)C(=O)O; βAla = NCCC(=O)O; Sar = CNCC(=O)O Where only a bound is given, the exact number is not on record here.

One assay deals with T1, IL-23R (Homo sapiens, UniProt Q5VWK5).
T1 sequence (Q5VWK5 24-629): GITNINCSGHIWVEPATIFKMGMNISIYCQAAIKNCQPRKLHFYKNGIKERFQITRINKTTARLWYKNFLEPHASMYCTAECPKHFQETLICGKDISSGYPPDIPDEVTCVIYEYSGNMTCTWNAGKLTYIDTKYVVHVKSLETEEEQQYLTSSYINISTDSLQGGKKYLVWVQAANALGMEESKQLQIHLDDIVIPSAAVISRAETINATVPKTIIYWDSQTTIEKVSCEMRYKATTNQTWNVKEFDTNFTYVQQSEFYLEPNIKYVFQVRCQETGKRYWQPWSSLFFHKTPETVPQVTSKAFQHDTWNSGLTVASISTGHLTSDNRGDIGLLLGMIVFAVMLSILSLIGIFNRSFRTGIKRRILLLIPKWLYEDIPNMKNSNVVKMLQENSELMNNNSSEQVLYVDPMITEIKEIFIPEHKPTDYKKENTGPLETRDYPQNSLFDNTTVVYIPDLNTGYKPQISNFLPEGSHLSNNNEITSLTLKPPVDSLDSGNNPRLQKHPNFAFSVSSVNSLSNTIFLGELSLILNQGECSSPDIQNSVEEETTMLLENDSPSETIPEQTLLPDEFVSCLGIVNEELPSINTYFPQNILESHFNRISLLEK
Nature of the assay: DB cells IL23R pSTAT3 cell assay (pStat3 HTRF).
Details: not given
In kind it is cell-based. An excerpt: Human ELISA indicates the IL23-IL23R competitive binding assay described below, Rat ELISA indicates the rat IL-23R competitive binding ELISA assay described below, and pStat3HTRF indicates the DB cells IL-23R pSTAT3 cell assay described below. The peptides depicted in Table E1 are cyclized via a disulfide bridge formed between two Pen residues in these peptides. The peptides depicted in Table E2 are cyclized via a thioether bond between the indicated amino acid residues. Table E2 provides an illustrative structure depicting thioether cyclization, which is indicated in the table by the term “cyclo,” with the cyclic region bracketed immediately following the term “cyclo.” For certain peptides, the residue Abu is present where indicated, whereas in other embodiments, e.g., those related to the non-cyclized form, the Abu may be referred to as a hSer(Cl) or homoSer residue.
DB Cells IL23R pSTAT3 Cell Assay
IL-23 plays a central role in supporting and maintaining Th17 differentiation in vivo. This process is thought to be mediated primarily through the Signal Transducer and Activator of Transcription 3 (STAT3), with phosphorylation of STAT3 (to yield pSTAT3) leading to upregulation of RORC and pro-inflammatory IL-17. This cell assay examines the levels of pSTAT3 in IL-23R-expressing DB cells when stimulated with IL-23 in the presence of test compounds. Serial dilutions of test peptides and IL-23 (Humanzyme #HZ-1261) at a final concentration of 0.5 nM, were added to each well in a 96 well tissue culture plate (Corning #CLS3894). DB cells (ATCC #CRL-2289), cultured in RPMI-1640 medium (Thermo Scientific #11875093) supplemented with 10% FBS, were added at 5×10E5 cells/well and incubated for 30 minutes at 37° C. in a 5% CO2 humidified incubator. Changes in phospho-STAT3 levels in the cell lysates were detected using the Cisbio HTRF pSTAT3 (Tyr705) Cellular Assay Kit (Cisbio #62AT3PEH), according to manufacturer's Two Plate Assay protocol.
For orientation: Time-resolved FRET reads energy transfer from a long-lived donor to a nearby acceptor.
As to `CCCCCCCC(=O)NCCCC[C@@H]1NC(=O)[C@H](Cc2c[nH]c3c(C)cccc23)NC(=O)[C@H]([C@@H](C)O)NC(=O)[C@H](CC(N)=O)NC(=O)[C@@H](NC(C)=O)C(C)(C)SSC(C)(C)[C@@H](C(=O)N[C@@H](Cc2ccc(OCCN)cc2)C(=O)N[C@@H](Cc2ccc3ccccc3c2)C(=O)N[C@@](C)(CCCCN)C(=O)N[C@@H](CCCCNC(C)=O)C(=O)N[C@@H](CC(N)=O)C(=O)N[C@H](CC(C)C)C(N)=O)NC1=O` [compound 317], the concentration for half-maximal inhibition (IC50) was 1 to 10 nM.

The assay is the same for the next values; noted with them: Table E3; DB cells, IL-23 0.5 nM, 30 minutes at 37° C.; read-out: pStat3 HTRF (IC50).
With `CC(=O)NCCCC[C@H](NC(=O)[C@](C)(CCCCN)NC(=O)[C@H](Cc1ccc2ccccc2c1)NC(=O)[C@H](Cc1ccc(OCCN)cc1)NC(=O)[C@H]1NC(=O)[C@H](CCC(N)=O)NC(=O)[C@H](Cc2c[nH]c3ccc(C#N)cc23)NC(=O)[C@H]([C@@H](C)O)NC(=O)[C@H](CC(N)=O)NC(=O)[C@@H](NC(C)=O)C(C)(C)SSC1(C)C)C(=O)N[C@@H](CC(N)=O)C(=O)N[C@H](CCCCN)C(N)=O` [compound 296], the IC50 is 1 to 10 nM. With `COc1cccc2c(C[C@@H]3NC(=O)[C@H]([C@@H](C)O)NC(=O)[C@H](CC(N)=O)NC(=O)[C@@H](NC(C)=O)C(C)(C)SSC(C)(C)[C@@H](C(=O)N[C@@H](Cc4ccc(OCCN)cc4)C(=O)N[C@@H](Cc4ccc5ccccc5c4)C(=O)N[C@@](C)(CCCCN)C(=O)N[C@@H](CCCCNC(C)=O)C(=O)N[C@@H](CC(N)=O)C(=O)N[C@H](CCCCN)C(N)=O)NC(=O)[C@H](CCC(N)=O)NC3=O)c[nH]c12` [compound 297], the half-inhibitory concentration (IC50) is 1 to 10 nM. For `COc1cccc2c(C[C@@H]3NC(=O)[C@H]([C@@H](C)O)NC(=O)[C@H](CC(N)=O)NC(=O)[C@@H](NC(C)=O)C(C)(C)SSC(C)(C)[C@@H](C(=O)N[C@@H](Cc4ccc(OCCN)cc4)C(=O)N[C@@H](Cc4ccc5ccccc5c4)C(=O)N[C@@](C)(CCCCN)C(=O)N[C@@H](CCCCNC(C)=O)C(=O)N[C@@H](CC(N)=O)C(=O)N[C@H](CCCCN)C(N)=O)NC(=O)[C@H](CCCCNC(C)=O)NC3=O)c[nH]c12` [compound 299], the IC50 is 1 to 10 nM.

For the molecule `CC(=O)NCCCC[C@H](NC(=O)[C@](C)(CCCCN)NC(=O)[C@H](Cc1ccc2ccccc2c1)NC(=O)[C@H](Cc1ccc(OCCN)cc1)NC(=O)[C@H]1NC(=O)[C@H](CCCCNC(=O)[C@H](C)N)NC(=O)[C@H](Cc2c[nH]c3c(C)cccc23)NC(=O)[C@H]([C@@H](C)O)NC(=O)[C@H](CC(N)=O)NC(=O)[C@@H](NC(C)=O)C(C)(C)SSC1(C)C)C(=O)N[C@@H](CC(N)=O)C(=O)N[C@H](CC(C)C)C(N)=O` [compound 314], the IC50 is 1 to 10 nM.

As to `CC(=O)NCCCC[C@H](NC(=O)[C@](C)(CCCCN)NC(=O)[C@H](Cc1ccc2ccccc2c1)NC(=O)[C@H](Cc1ccc(OCCN)cc1)NC(=O)[C@H]1NC(=O)[C@H](CCCCNC(=O)CC(F)(F)F)NC(=O)[C@H](Cc2c[nH]c3c(C)cccc23)NC(=O)[C@H]([C@@H](C)O)NC(=O)[C@H](CC(N)=O)NC(=O)[C@@H](NC(C)=O)C(C)(C)SSC1(C)C)C(=O)N[C@@H](CC(N)=O)C(=O)N[C@H](CC(C)C)C(N)=O` [compound 319], the half-inhibitory concentration (IC50) was less than 1 nM. In the case of `CC(=O)NCCCC[C@@H]1NC(=O)[C@H](Cc2c[nH]c3c(C)cccc23)NC(=O)[C@H]([C@@H](C)O)NC(=O)[C@H](CCC(N)=O)NC(=O)[C@@H](NC(=O)[C@@H](CCCNC(=N)N)NC(C)=O)CCSC[C@@H](C(=O)N[C@@H](Cc2ccc(OCCN)cc2)C(=O)N[C@@H](Cc2ccc3ccccc3c2)C(=O)N[C@@](C)(CCCCN)C(=O)N[C@@H](CCCCNC(C)=O)C(=O)N[C@@H](CC(N)=O)C(=O)N[C@H](CCCCN)C(=O)N(C)CC(N)=O)NC1=O` [compound 323] (Ac-[dR][Abu(4-yl)]QT[Trp(7-Me)]K(Ac)C[AEF][2Nal][αMeK]K(Ac)N[dK][Sar]-NH2; thioether 2-7), the IC50 was 1 to 10 nM.

Turning to `CC(=O)NCCCC[C@@H]1NC(=O)[C@H](Cc2c[nH]c3c(C)cccc23)NC(=O)[C@H]([C@@H](C)O)NC(=O)[C@H](CCC(N)=O)NC(=O)[C@@H](NC(=O)[C@@H](CCCNC(=N)N)NC(C)=O)CCSC[C@@H](C(=O)N[C@@H](Cc2ccc(OCCN)cc2)C(=O)N[C@@H](Cc2ccc3ccccc3c2)C(=O)N[C@@](C)(CCCCN)C(=O)N[C@@H](CCCCNC(C)=O)C(=O)N[C@@H](CC(N)=O)C(=O)N[C@@](C)(Cc2ccccc2)C(N)=O)NC1=O` [compound 327] (Ac-[dR][Abu(4-yl)]QT[Trp(7-Me)]K(Ac)C[AEF][2Nal][αMeK]K(Ac)N[αMeF]-NH2; thioether 2-7), the IC50 lay in the range of 10 to 100 nM.

`CC(=O)NCCCC[C@H](NC(=O)[C@](C)(CCCCN)NC(=O)[C@H](Cc1ccc2ccccc2c1)NC(=O)[C@H](Cc1ccc(OCCN)cc1)NC(=O)[C@H]1NC(=O)[C@H](CCCNC(N)=O)NC(=O)[C@H](Cc2c[nH]c3c(C)cccc23)NC(=O)[C@H]([C@@H](C)O)NC(=O)[C@H](CC(N)=O)NC(=O)[C@@H](NC(C)=O)C(C)(C)SSC1(C)C)C(=O)N[C@@H](CC(N)=O)C(=O)N(C)CC(N)=O` [compound 339] (Ac-[Pen]NT[Trp(7-Me)][Cit][Pen][AEF][2Nal][αMeK]K(Ac)N[Sar]-NH2; disulfide 1-6): the IC50 lay within 1 to 10 nM.

On to `CC(=O)NCCCC[C@H](NC(=O)[C@](C)(CCCCN)NC(=O)[C@H](Cc1ccc2ccccc2c1)NC(=O)[C@H](Cc1ccc(OCCN)cc1)NC(=O)[C@H]1NC(=O)[C@H](CCCNC(N)=O)NC(=O)[C@H](Cc2c[nH]c3c(C)cccc23)NC(=O)[C@H]([C@@H](C)O)NC(=O)[C@H](CC(N)=O)NC(=O)[C@@H](NC(C)=O)C(C)(C)SSC1(C)C)C(=O)N[C@@H](CC(N)=O)C(=O)NC(C)(C)C(=O)NCCC(N)=O` [compound 340] (Ac-[Pen]NT[Trp(7-Me)][Cit][Pen][AEF][2Nal][αMeK]K(Ac)N[Aib][βAla]-NH2; disulfide 1-6), for which the IC50 is less than 1 nM. As to `CC(=O)NCCCC[C@H](NC(=O)[C@](C)(CCCCN)NC(=O)[C@H](Cc1ccc2ccccc2c1)NC(=O)[C@H](Cc1ccc(OCCN)cc1)NC(=O)[C@H]1NC(=O)[C@H](CCCNC(N)=O)NC(=O)[C@H](Cc2c[nH]c3c(C)cccc23)NC(=O)[C@H]([C@@H](C)O)NC(=O)[C@H](CC(N)=O)NC(=O)[C@@H](NC(C)=O)C(C)(C)SSC1(C)C)C(=O)N[C@@H](CC(N)=O)C(=O)NC(C)(C)C(=O)NCC(N)=O` [compound 341] (Ac-[Pen]NT[Trp(7-Me)][Cit][Pen][AEF][2Nal][αMeK]K(Ac)N[Aib]G-NH2; disulfide 1-6), the IC50 was less than 1 nM. In the case of `CC(=O)NCCCC[C@H](NC(=O)[C@](C)(CCCCN)NC(=O)[C@H](Cc1ccc2ccccc2c1)NC(=O)[C@H](Cc1ccc(OCCN)cc1)NC(=O)[C@H]1NC(=O)[C@H](CCCNC(N)=O)NC(=O)[C@H](Cc2c[nH]c3c(C)cccc23)NC(=O)[C@H]([C@@H](C)O)NC(=O)[C@H](CC(N)=O)NC(=O)[C@@H](NC(C)=O)C(C)(C)SSC1(C)C)C(=O)N[C@@H](CC(N)=O)C(=O)NC(C)(C)C(=O)N[C@@H](C)C(N)=O` [compound 342] (Ac-[Pen]NT[Trp(7-Me)][Cit][Pen][AEF][2Nal][αMeK]K(Ac)N[Aib]A-NH2; disulfide 1-6), the IC50 is less than 1 nM. Still for that read-out and setting: as for `CC(=O)NCCCC[C@H](NC(=O)[C@](C)(CCCCN)NC(=O)[C@H](Cc1ccc2ccccc2c1)NC(=O)[C@H](Cc1ccc(OCCN)cc1)NC(=O)[C@H]1NC(=O)[C@H](CCCNC(N)=O)NC(=O)[C@H](Cc2c[nH]c3c(C)cccc23)NC(=O)[C@H]([C@@H](C)O)NC(=O)[C@H](CC(N)=O)NC(=O)[C@@H](NC(C)=O)C(C)(C)SSC1(C)C)C(=O)N[C@@H](CC(N)=O)C(=O)NC(C)(C)C(=O)N[C@@H](CCCNC(=N)N)C(N)=O` [compound 343] (Ac-[Pen]NT[Trp(7-Me)][Cit][Pen][AEF][2Nal][αMeK]K(Ac)N[Aib]R-NH2; disulfide 1-6), the figure is 1 to 10 nM.

For the origin of these results see US20260116921A1, “PEPTIDE INHIBITORS OF INTERLEUKIN-23 RECEPTOR AND THEIR USE TO TREAT INFLAMMATORY DISEASES” (priority 2018, published 2026).
